Data: US8859587B2, “(2E)-3-phenyl-N-[2,2,2-Trifluoro-1-[[8-quinolineamino)thiomethyl]amino]ethyl]-2-acrylamide and pharmaceutical uses thereof” (Chinese PLA General Hospital, priority 2010, dated 2014)
Marks after values point to notes of the source that are not given here.

What was measured:
[1] = test system: primary cardiac muscle cells induced by TM; test: Cardiomyocyte apoptosis induced by TM, AnnexinV-FITC flow cytometer; assay type: cell-based, Wistar rats; settings: for Cardiomyocyte apoptosis rate detected by flow cytometer (%): 24 h
Description: (§1) The primary cardiac muscle cells obtained by the method according to the culture method of primary cardiac muscle cells of Example 1 were added with tunicamycin (TM) on the 4th day to perform interference test. The cells were randomly divided into 5 groups: solvent control group (DMSO), TM interference group (5 μg/ml), Compound of Formula I+TM interference group (10 μM+5 μg/ml), Compound of Formula I interference group ([…]+5 μg/ml), Compound of Formula I interference group ([…]+5 μg/ml).
it is 24 h after drug interference, the cells were treated by the method of AnnexinV-FITC apoptosis kit, and the apoptosis was detected within 1 h by using a flow cytometer (BD ACScalibur, US Becton-Dickinson Company). For each sample, 14000 cells were collected and analyzed, the test was repeated for 3 times, and the average value was used as a result.

[2] = test system: primary cardiac muscle cells induced by TM; test: Cardiomyocyte apoptosis induced by TM, TUNEL detection; assay type: cell-based, Wistar rats; settings: for TUNEL detection (%) cardiomyocyte apoptosis rate: 24 h, n = 6
Description: as §1
It was 24 h after drug interference, the apoptotic cells were detected by terminal deoxynucleotidyl transferase-mediated biotinylated UTP nick end labeling (TUNEL) method, and the cells were treated according to the specification of kit. The cells treated with 0.1 mg/ml DNase I and growing on a glass slide were used as positive control. 5 or more visual fields were randomly selected under light microscope, the apoptotic cells (brown yellow granules seen in nucleus) among the cells were counted. Apoptosis rat=(number of positively stained nuclei/number of all nuclei)×100%.

[3] = test system: cardiac muscle cells under anoxia; test: Cardiomyocyte apoptosis induced by anoxia, high connotation screening (HCS Reader); assay type: cell-based, Wistar rats; settings: for Filament strength (actin filament) / Nucleus area / Nucleus strength / Short/long axis ratio of filament / cell count increase in comparison with the anoxia group / light flux / Cell count / Transmembrane potential (mitochondrial): anoxia 16 h; for Cell count / Transmembrane potential (mitochondrial): relative to control group = 1
Description: neonate Wistar rats, rat age: within 24 h, male and female
cardiac muscle cells were separated and cultured by referring to the method of differential adhesion, Wistar neonate […] newborn within 24 h were used, sterilized at skin of ventrum with iodine tincture and ethanol, subjected to thoracotomy using scissors at subxiphoid median line with a deviation to left, heart was taken out after slant thoracotomy and placed in PBS precooled with ice; the heart was softly blown and beaten with 0.01M PBS to remove blood cells and other tissues, then cut into pieces with 0.5 mm^3 size, washed with 0.01M PBS repeatedly for 2-3 times; the pieces were placed in conical flask, added with 4 ml of 0.125% pancretin, 1 ml of 0.1% collagenase II (final concentrations separately being 0.1% and 0.02%), shaken in 37° C. water bath for 10 min, the supernatant was discarded; then 4 ml of 0.125% pancretin and 1 ml of 0.1% collagenase II again, shaken in 37° C. water bath for digestion for 10 min, the supernatant was sucked and transferred to a centrifuge tube, and the supernatant was added with DMEM containing 10% FBS to terminate digestion; the step of shaking and digestion in water bath was repeated for 3-4 times, until the tissue pieces were completely digested; the collected cell suspension was centrifuged under 1000 rpm for 10 min, the supernatant was removed, then a culture medium was added for resuspension; the resuspended cells were inoculated in a cell culture flask, placed in CO2 incubator at 37° C. for incubation for 1.5 h, then the culture medium was sucked out, countered under microscope, then DMEM culture medium containing 10% FBS was used to adjust cell density, inoculated in an amount of 1×10^4 to a 96-well plate, placed in 5% CO2 incubator at 37° C. for 24 h, then half medium was replaced, a culture medium containing 0.1% Brdu was supplementally added; then the medium was replaced once per 48 h, and primary cardiac muscle cells were obtained after 4 days of cultivation.
1. The separated cardiac muscle cells were inoculated to a 96-wells plate, 10^4 cells per well, and the volume of each well was 100 μl (marginal wells were filled with sterile PBS). After being cultivated in 5% CO2 and 37° C. incubator for 4 d, Formula I was separated added at different concentrations (5 μM, 10 μM, 20 μM) and treated for 30 min, then placed in a sealed 37° C. anoxia incubator (O2/CO2, 5:95) and continuously incubated for 16 h, and at the same time, anoxia control wells and the normal control wells were set and cultivated in 5% CO2, 37° C. incubator for 16 h.
2. It was 30 min before the anoxia incubation was finished, each well was supplemented with 50 μl of culture medium and 50 μl of Mitotracker/Hoechst solution, and the cells were continuously incubated at 37° C. for 30 min.
3. 100 μl of the fixing solution was preheated to 37° C. and separately added to each culture well, without sucking out culture medium, and incubation was performed under ventilation at room temperature for 10 min.
4. The solution of each well was sucked out (the plate could be struck), washed with 1× Wash Buffer (100 uL/well) once. Carefulness was kept during operation and washing procedure, and slow sucking and adding liquid to maintain cell adhesion and integrity.
5. Wash Buffer was sucked out, 1× penetrating buffer solution (100 uL/well) was added, incubated at room temperature for 15 min.
6. The penetrating buffer solution in each well was sucked out, washed once with 100 μL/well of 1× Wash Buffer.
7. The Wash Buffer in each well was sucked out (the plate could be struck), each well was added with 50 μl of Alexa Fluor 488 Phalloidin Solution, incubated at room temperature in dark for 30 min.
8. The Alexa Fluor 488 Phalloidin solution in each well was sucked out, washed with 1× Wash Buffer (100 μl/well) twice, and added with 1× Wash Buffer (100 μl/well).
9. The edge of plate was covered with a sealing membrane (for prevention of drying), and assayed with HCS Reader. […]

[4] = test system: apoptosis stimulation irrelevant to endocytoplasmic reticulum stress; test: Protection against apoptosis stimulation irrelevant to endocytoplasmic reticulum stress; assay type: cell-based

## O=C(/C=C/c1ccccc1)NC(NC(=S)Nc1cccc2cccnc12)C(Cl)(Cl)Cl (stereo not shown) [Compound of Formula I, (2E)-3-phenyl-N-[2,2,2-trichloro-1-[[(8-quinolylamino)thiomethyl]amino]ethyl]-2-acrylamide]
[1]; 10 μM + TM 5 μg/ml
  Cardiomyocyte apoptosis rate detected by flow cytometer (%): 22.98 ± 1.35^ab %
[1]; 20 μM + TM 5 μg/ml
  Cardiomyocyte apoptosis rate detected by flow cytometer (%): 20.13 ± 0.87^ab %
[1]; 40 μM + TM 5 μg/ml
  Cardiomyocyte apoptosis rate detected by flow cytometer (%): 18.64 ± 0.83^ab %
[1]; 10, 20, 40 μM, P<0.05
  apoptosis rates in comparison with the TM group (flow cytometer): significantly decreased apoptosis rates
[2]; 10 μM + TM 5 μg/mL
  TUNEL detection (%) cardiomyocyte apoptosis rate: 25.75 ± 0.97 ^b %
[2]; 20 μM + TM 5 μg/mL
  TUNEL detection (%) cardiomyocyte apoptosis rate: 24.94 ± 0.82 ^b %
[2]; 40 μM + TM 5 μg/mL
  TUNEL detection (%) cardiomyocyte apoptosis rate: 21.15 ± 0.85 ^b c %
[2]; 10, 20, 40 μM, P<0.05
  apoptosis rate in comparison with the TM interference group (TUNEL): significant decrease in apoptosis rate
[3]; 5 μM
  Filament strength (actin filament): 498.03 ± 76.67
  Nucleus area: 109.90 ± 3.97
  Nucleus strength: 124.90 ± 2.25
  Short/long axis ratio of filament: 0.75 ± 0.02
  cell count increase in comparison with the anoxia group: 17.06%
  light flux: 1201.92 ± 29.95
  Cell count: 88.57% ± 7.64%
  Transmembrane potential (mitochondrial): 96.69% ± 5.06%
[3]; 10 μM
  Filament strength (actin filament): 503.64 ± 49.23
  Nucleus area: 107.43 ± 7.77
  Nucleus strength: 123.21 ± 2.71
  Short/long axis ratio of filament: 0.74 ± 0.01
  cell count increase in comparison with the anoxia group: 26.52%
  light flux: 1166.12 ± 91.06
  Cell count: 98.03% ± 16.24
  Transmembrane potential (mitochondrial): 97.19% ± 2.82^
[3]; 20 μM
  Filament strength (actin filament): 471.83 ± 69.38
  Nucleus area: 111.90 ± 10.76
  Nucleus strength: 121.40 ± 2.24
  Short/long axis ratio of filament: 0.74 ± 0.02
  cell count increase in comparison with the anoxia group: 30.22%
  light flux: 1214.09 ± 107.59
  Cell count: 101.73% ± 22.42%
  Transmembrane potential (mitochondrial): 99.40% ± 2.80%
[3]; highly anoxia condition
  effect on indexes of cardiac muscle cells under anoxia (nucleus area, nucleus strength, light flux, actin filament, transmembrane potential, cell count): significantly improve the above indexes
[4]
  protection against apoptosis stimulation irrelevant to endocytoplasmic reticulum stress: does not protect apoptosis stimulation irrelevant to endocytoplasmic reticulum stress
